Laboratory results taken from article PMC8395040 (International Journal of Molecular Sciences, 2021).

Legend:
[1] = system: BxPC-3; assay: MTT cytotoxicity assay, BxPC-3; type: cell-based; conditions: Homo sapiens, 72 h, 0.05–50 µM
Protocol: (§1) Cytotoxicity assays were performed by using the MTT reduction method as described previously. Briefly, cancer cell lines were plated in flat-bottom 96-well plates at a cell concentration of 5 × 10^3 cells/well for the fastest growing lines, such as HEK293 and HT29 cells and 1 × 10^4 cells/well for more slowly growing lines, such as HCT116, H1975, BxPC-3, AsPC-1, B16-F10 and DAOY. Then, cells were incubated with the synthesised compounds at different concentrations (from 0.05 to 50 µM) in 200 µL with 10% FBS in RPMI 1640 or DMEM F12 culture medium at 37 °C for 72 h. Later, 10 µL of MTT were added at a final concentration of 0.5 mg/mL, incubated at 37 °C for 4 h, and then solubilised with 10% sodium dodecyl sulphate (SDS) in 0.1 mM HCl and incubated overnight at 37 °C. Formazan formation was measured at 570 nm in a multiwell plate reader (Cytation 5, Biotek Instruments, Winooski, VT, USA). Three independent biological replicates were performed.

[2] = system: HT29; assay: MTT cytotoxicity assay, HT29; type: cell-based; conditions: Homo sapiens, HT-29, 72 h, MTT; for cytotoxicity at 50 µM: read-out: % Cytotoxicity (50 µM) HT29; for IC50: 0.05–50 µM
Protocol: as §1

[3] = system: HCT116; assay: MTT cytotoxicity assay, HCT116; type: cell-based; conditions: Homo sapiens, HCT-116, 72 h, MTT; for cytotoxicity at 50 µM: read-out: % Cytotoxicity (50 µM) HCT116; for IC50: 0.05–50 µM
Protocol: as §1

[4] = system: Daoy; assay: MTT cytotoxicity assay, Daoy; type: cell-based, human; conditions: Homo sapiens, Daoy, 72 h, MTT; for cytotoxicity at 50 µM: read-out: % Cytotoxicity (50 µM) DAOY;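 as to all read-outs here: viability read as formazan absorbance at 570 nm after MTT reduction, three independent biological replicates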
[5] = system: HCT116; assay: Colony formation assay, HCT116; type: cell-based, human; conditions: 5 µM, 14 d
Protocol: HT29, HCT116, H1975 and HEK293 cells were seeded in a 6-well plate (1 × 10^4 cells per well) and incubated overnight in DMEM F12 supplemented with 10% FBS. […] After 72 h, the medium was replaced by fresh medium without stimuli, and cells were incubated for an additional 14 d to permit colony formation. The cells were fixed during 30 min with PFA 4% (v/v), washed and stained for 30 min at RT with a 5% solution of violet crystal for final colony counting. Three independent replicates were performed.

[6] = MTT cytotoxicity assay, HEK293 control cells; type: cell-based, human; conditions: human, HEK293 cells; 50 µM, 72 h, MTT;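 also: Read-out is formazan absorbance at 570 nm from MTT reduction in 96-well plates, with three independent biological replicates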
[7] = system: HEK293; assay: MTT cytotoxicity assay, HEK293 control cells; type: cell-based, human; conditions: for IC50: Homo sapiens, HEK293, MTT, 72 h, non-cancer cell line;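 as to all read-outs here: Read-out is formazan absorbance at 570 nm from MTT reduction in 96-well plates, with three independent biological replicates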
[8] = system: Gli1 mRNA in Smo−/− MEFs; assay: Gli1 mRNA (qRT-PCR) in Smo−/− MEFs; type: cell-based, mouse; conditions: 24 h and/or 48 h
Protocol: HEK293T and Smo^−/−, Ptch^−/− MEFs cells were cultured in DMEM plus 10% FBS, 1% L-glutamine and antibiotics. Transient transfections were performed using DreamFectTM Gold transfection reagent (Oz Biosciences SAS, Marseille, France) following the manufacturer’s instructions and for varying periods of time depending on the experiment (24–72 h). […] Vehicle (DMSO) was used as control.
Total RNA was isolated with Trizol (Invitrogen/Life Technologies, Carlsbad, CA, USA) from Smo^−/− MEFs, Ptch^−/− MEFs or HT29 cells treated for 24 h and/or 48 h with 4s at different concentrations and reverse transcribed with the SensiFAST cDNA Synthesis Kit (Bioline Reagents Limited, London, UK). Quantitative real-time PCR (Q-PCR) analysis of Gli1 and housekeeping (HPRT, TBP, HMBS) mRNA levels was performed on each cDNA sample using the VIIA7 Real Time PCR System employing Assay-on-Demand Reagents (Life Technologies) as previously described. […] Each amplification reaction was performed in triplicate, the average of the three threshold cycles was used to calculate the amount of transcript in the sample (using SDS version 2.3 Software). mRNA quantification was expressed in arbitrary units as the ratio of the sample quantity to the quantity of the calibrator (ΔCt method). […]

[9] = system: GLI1-responsive luciferase reporter in HCT116 cells; assay: HH-dependent GLI luciferase reporter assay in HCT116; type: cell-based, human; conditions: 24 h, 4s 1.5 µM, vismodegib 1 µM; for activation induced by the agonist purmorphamine: purmorphamine 20 µM
Protocol: Luciferase and renilla activity were assayed with a dual-luciferase assay system according to the manufacturer’s instructions (Cignal Reporter Gli-luciferase, ADN, Qiagen, Hilden, Germany). Results were expressed as luciferase/renilla ratios and represent the mean of triplicate values in one assay.
Supplemental Figure S2: Luciferase reporter activity dependent on the Hh pathway.
This assay was performed in HCT116 cells stably transformed with a Gli responsive luciferase reporter gene and a renilla luciferase gene (normalization control), treated for 24 […]
renilla activity were assayed with the dual-luciferase assay system Cignal Reporter Gli - luciferase (ADN, Qiagen). Results are expressed as luciferase/renilla activity ratios and represent the mean of triplicate values from one assay. […]
(1 picture or pasted object on this page, not shown here)

[10] = system: HT29 cells; assay: Annexin V-FITC/PI assay, HT29; type: cell-based, human; conditions: for early apoptosis (II): 19 µM, 3 or 12 h, untreated control 2.7%
Protocol: HT29 cells were seeded in a 12-well plate (5 × 10^5 cells per well) and incubated overnight in DMEM F12. […] The cells were collected and then processed for apoptosis analysis using the Annexin-V/PI Alexa Fluor 488 Apoptosis Kit (Invitrogen, Waltham, MA, USA) according to the manufacturer’s instructions. Finally, cells were analysed by flow cytometry (BD; FACS Canto II, Mountain View, CA, USA) and data were processed using the FCS Express v6 software. Three independent replicates were performed.

[11] = system: AsPC-1; assay: MTT cytotoxicity assay, AsPC-1; type: cell-based; conditions: Homo sapiens, ASPC1, 72 h, 0.05–50 µM
Protocol: as §1

| SMILES | IC50 [1] | cytotoxicity at 50 µM [2] | IC50 [2] | cytotoxicity at 50 µM [3] | IC50 [3] | cytotoxicity at 50 µM [4] | colony formation HCT116 [5] | cytotoxicity at 72 h, 50 µM [6] | concentration at which effects on HEK293 cells were observed [7] | IC50 [7] | GLI1 mRNA levels in Smo−/− MEFs [8] | basal GLI1 transcription activity [9] | activation induced by the agonist purmorphamine [9] | early apoptosis (II) [10] | viability at 19 µM ([10]; Homo sapiens, HT-29, 3 or 12 h, control around 95.7%, read-out: cell viability (Annexin V-FITC/PI)) | IC50 [11] | IC50 ([4]; 0.05–50 µM) |
| --- | --- | --- | --- | --- | --- | --- | --- | --- | --- | --- | --- | --- | --- | --- | --- | --- | --- |
| CCCCCCn1cnc2c(-c3ccc(OC(F)(F)F)cc3)nc(N3CCN(c4ccncc4)CC3)nc21 [Compound 4s, 9-Hexyl-2-(4-(pyridin-4-yl)piperazin-1-yl)-6-(4-(trifluoromethoxy)phenyl)-9H-purine] | 4.1 ± 0.9 µM | 25 ± 2.7% | 15 ± 1.2 µM | 99 ± 0.4% | 1.3 ± 0.4 µM | 98 ± 0.3% | totally inhibited the formation of colonies | < 50% | above 50 µM | > 50 µM | did not affect the mRNA levels of GLI1 | did not affect basal GLI1 transcription activity | effectively reduced the activation | 64.6% | ~33.8% | 1.7 ± 0.05 µM |  |
| CS(=O)(=O)c1ccc(C(=O)Nc2ccc(Cl)c(-c3ccccn3)c2)c(Cl)c1 [Vismodegib, reference compound] | > 50 µM | < 50% | > 50 µM | < 50% | > 50 µM | < 50% | less effective than 4s | < 50% |  | > 50 µM | did not affect the mRNA levels of GLI1 | did not affect basal GLI1 transcription activity | effectively reduced the activation | no statistically significant differences |  | > 50 µM | > 50 µM |
